“Also recorded” adds a separate entry of the source.
Assays:
[1] = tested on: Plasmodium falciparum; assay: Inhibition of Plasmodium falciparum growth (35S-methionine incorporation) and effect of adding iron; assay type: cell-based; details: for effect of FeCl3 on inhibition: 2.10^-3 M FeCl3 added immediately after the hydroxamate; for antiplasmodial activity / parasite growth inhibition: in vitro, no iron added; for effect of adding iron on the antiplasmodial action: iron added to the parasite culture
Description: FIG. 3b: the pool of hydroxamate (10 ml to 15 ml) collected by the ion exchange chromatography was placed in a Sephadex G50 column (25×2 cm) and eluted with 100 mM of phosphate buffer (pH 7.0), at a flow rate of 30 ml/h. Fractions (2 ml to 3 ml) were collected and the hydroxamate measured (A526 nm absorbance -- --), and the following were also measured: inhibition of Plasmodium falciparum growth (--.smallcircle.--) and A220 nm absorbance (--Δ--).
0.2 μm of the filtered fractions were placed in a synchronized culture of Plasmodium falciparum at a final concentration of 2.5%, as described in Table I. 100 μCi/ml of methionine marked with sulfur 35 (Amersham) were added on day 1 (rings). The parasite culture was collected on day 2 (schizonts) and the incorporation of ^35 S-methionine was measured in 10% TCA.

[2] = tested on: schizonts of Plasmodium falciparum; assay: Kinetics of inhibition of 35S-methionine incorporation in schizonts; assay type: cell-based; details: for incorporation of 35S-methionine in the proteins of schizonts: FIG. 7, aerobactin 50 μg/ml, desferioxamine 500 μg/ml
Description: Time in minutes is plotted along the X axis and the percentage of inhibited schizonts is plotted up the Y axis.
The schizonts of Plasmodium falciparum were concentrated from a culture, they were washed and cultured at 37° C. for one hour. Solutions of hydroxamate (-- -- 50 μg/ml aerobactin and --.smallcircle.-- 500 μg/ml of desferioxamine) were added to the schizonts. Incubation at 37° C. continued and samples were taken at various different times. The hydroxamate was removed by washing the cells, and the cells were again cultured in the presence of 250 μCi/ml ^35 S-methionine for one hour.
The cultures were collected and the degree to which ^35 S-methionine had been incorporated was measured.

[3] = tested on: red blood cells infected with Plasmodium falciparum; assay: Penetration and concentration in parasitized red blood cells; assay type: cell-based, human; details: for penetration into parasitized red blood cells: schizont stage, aerobactin 7 μg/ml, desferioxamine 50 μg/ml
From the text: (§1) This test studies the incorporation of […] in normal red blood cells and in red blood cells infected with Plasmodium falciparum.
(§2) Tritium-marked aerobactin (0.2 mCi/mmol to 0.3 mCi/mmol) was purified as described above (FIG. 3) from a supernatant of strains of K5 1101 Klebsiella pneumoniae culture cultivated in an RPMI* medium containing 100 μCi/ml of tritium-marked lysine.
Desferioxamine marked with iodine 125 (50 mCi/mmol) was obtained by the iodine-producing technique.
(§3) The tritium-containing aerobactin (7 μg/ml) and the ^125 I containing desferioxamine (50 μg/ml) were introduced into synchronized cultures of Plasmodium falciparum (schizont stage, 20% parasitemia, hematocrit: 5%) and in a suspension of red blood cells (5% hematocrit). The cultures were incubated at 37° C. and 50 μl samples were taken at different times.
(§4) For each sample, the following were measured:
(§5) 1. The cpm in the culture supernatant;
2. The cpm in the supernatant of red blood cells lysis (the red blood cells were lysed in 40 vol. of RPMI diluted ten times and the free parasites were precipitated using a centrifuge rotating at 5,000 rpm for 5 min and were washed in RPMI); and
3. The cpm associated with free parasites.
The parasites are subsequently lysed in order to prepare soluble and membrane fractions as described previously (Braun-Breton et al, Molecular Biochem. Parasitol., 1986, 20, pp. 33-43).

[4] = tested on: monkeys; details: monkey, in vivo
[5] = tested on: P. falciparum; assay: Parasite multiplication and survival of mice infected with P. falciparum; assay type: in vivo; details: FIG. 5
[6] = tested on: Plasmodium falciparum; assay: Quantitative in vitro growth inhibition of Plasmodium falciparum; assay type: cell-based; details: 2.5 μg/ml (about 10^-5 M)
[7] = tested on: mice; assay: Toxicity in mice; assay type: in vivo; details: injection
[8] = tested on: fibroblasts; assay: Toxicity on a culture of fibroblasts; assay type: cell-based; details: purified
[9] = tested on: bacteria; details: Williams et al 1986; cited from earlier work
[10] = tested on: Plasmodium chaubaudi; assay: Parasite multiplication and survival of mice infected with Plasmodium chaubaudi; assay type: in vivo
[11] = tested on: normal red blood cells; assay: Concentration in healthy red blood cells; assay type: cell-based, human; details: tritium-marked, 7 μg/ml, 37° C.
Description: as §1, §2, §3, §4, §5
2. The cpm in the supernatant of red blood cells lysis (the red blood cells were lysed in 40 vol. of RPMI diluted ten times and the free parasites were precipitated using a centrifuge rotating at 5,000 rpm for 5 min and were washed in RPMI); and […]

[12] = Williams et al 1986; cited from earlier work
[13] = tested on: L fibroblasts; assay: 35S-methionine incorporation in L fibroblasts; assay type: cell-based; details: 5 hours
[14] = cited from earlier work

For CC(=O)N(O)CCCCCNC(=O)CCC(=O)N(O)CCCCCNC(=O)CCC(=O)N(O)CCCCCN [Desferioxamine], which “effect of FeCl3 on inhibition” value [1] is on record?
The value was “completely reverses the inhibition”.

What about the “antiplasmodial activity / parasite growth inhibition” value [1] of the same compound?
Its value is “inhibits parasite growth”.

And the “effect of adding iron on the antiplasmodial action” value [1]?
Its value is “totally reversed”.

What about the “incorporation of 35S-methionine in the proteins of schizonts” value [2] of the same compound?
The value was “no action on the incorporation of methionine”.

What about the “penetration into parasitized red blood cells” value ([3]; 37° C.) of the same compound?
The value was “does not penetrate into parasitized red blood cells”.

With Cl.NCCCC[C@H](N)C(=O)NO [L-Lysine hydroxamate hydrochloride] as the compound, how does the “antiplasmodial activity / parasite growth inhibition” value [1] read?
Its value is “does not exhibit antiplasmodial activity”.

With CC(=O)N(O)CCCCC(NC(=O)CC(O)(CC(=O)NC(CCCCN(O)C(C)=O)C(=O)O)C(=O)O)C(=O)O (stereo not drawn) [aerobactin] as the compound, how does the “toxic effect in monkeys” value [4] read?
Its value is “no toxic effect has been observed”.

And the “parasite multiplication and survival of mice (P. falciparum)” value [5]?
Its value is “The same effect has been observed”.

What about the “inhibition of growth of Plasmodium falciparum” value [6] of the same compound?
The value was 100%.

What about the toxicity for mice [7] of the same compound?
The toxicity for mice was “not toxic for mice; also recorded: no toxic effect has been observed”.

What about the “toxic effect on fibroblasts in culture” value [8] of the same compound?
Its value is “no toxic effect on the cells”.

And the “concentration stimulating bacterial growth relative to enterochelin” value [9]?
The value was 500 times smaller.

And the survival of mice ([10]; 7.5 μg)?
The survival of mice was “do not survive”.

What about the “parasite multiplication and survival of mice” value ([10]; purified, intravenous, 15 μg/mouse) of the same compound?
Its value is “causes parasite multiplication to be slowed down, allowing the mice to survive”.

And the “concentration in healthy red blood cells” value [11]?
Its value is “not concentrated in healthy red blood cells”.

And the “affinity for ferric derivatives relative to enterochelin” value [12]?
The value was “lower affinity for ferric derivatives than enterochelin”.

And the “effect of FeCl3 on inhibition” value [1]?
The value was “little effect on inhibition”.

And the “plasmocidin activity after purification” value ([1]; Dowex-1 and Sephadex G50 purified, FIG. 3)?
Its value is “plasmocidin activity subsists”.

And the “effect of adding iron on the antiplasmodial action” value [1]?
Its value is “does not reverse the plasmocidin action”.

And the “incorporation of 35S-methionine in the proteins of schizonts” value [2]?
Its value is “quickly suppresses the incorporation”.

And the inhibition at 50 µg/mL ([2]; Plasmodium falciparum, 2 h, 50 μg/ml, within two hours, 37° C., read-out: schizonts with inhibited incorporation of methionine)?
Its inhibition at 50 µg/mL is 90%.

What about the “location of intraparasitic radioactivity” value ([3]; lysed parasites, soluble and membrane fractions) of the same compound?
Its value is “recovered in the soluble fraction of the parasites”.

What about the “penetration into parasitized red blood cells” value ([3]; 37° C.) of the same compound?
The value was “penetrates quickly into parasitized red blood cells”.

And the “detection in the cytoplasm of the red blood cells” value ([3]; supernatant of red blood cell lysis)?
The value was “not detected”.

What about the “concentration in the parasitized cell” value ([3]; tritium-marked, 7 μg/ml, 37° C.) of the same compound?
Its value is “at least 200 times”.

What about the “inhibition of methionine incorporation in L fibroblasts” value [13] of the same compound?
Its value is “Such activity was not found”.

With CCN(CC)CCCC(C)Nc1ccnc2cc(Cl)ccc12 (stereo not drawn) [chloroquine] as the compound, how does the “toxicity (prior art)” value [14] read?
Its value is “do not present significant toxicity”.

— patent US5192807A, “Siderophores as antiparasitic agents” (priority 1987, dated 1993)
